Data taken from ChEMBL document CHEMBL4725402, “Discovery of thiapyran-pyrimidine derivatives as potential EGFR inhibitors” (Bioorg Med Chem, 2020).

Key:
NCI-H1975 = experiment: Antiproliferation activity against human NCI-H1975 cells harboring EGFR T790M/L858R mutation assessed as reduction in cell viability measured after 72 hrs by MTT assay; type: functional, cell-based; settings: NCI-H1975, 72 h
A549 = experiment: Antiproliferation activity against human A549 cells assessed as reduction in cell viability measured after 72 hrs by MTT assay; type: functional, cell-based; settings: A549, 72 h
HeLa = experiment: Antiproliferation activity against human HeLa cells assessed as reduction in cell viability measured after 72 hrs by MTT assay; type: functional, cell-based
[1] = Selectivity index, ratio of IC50 for human L02 cells to IC50 for human A549 cells assessed as reduction in cell viability measured after 72 hrs by MTT assay; type: toxicity; settings: L02 cells versus A549 cells, read-out: Ratio IC50
L02 = experiment: Cytotoxicity against human L02 cells assessed as reduction in cell viability measured after 72 hrs by MTT assay; type: cell-based; settings: L02, 72 h
MCF7 = experiment: Antiproliferation activity against human MCF7 cells assessed as reduction in cell viability measured after 72 hrs by MTT assay; type: functional, cell-based; settings: MCF7, 72 h

Structure (SMILES) | IC50 (NCI-H1975) | IC50 (A549) | IC50 (HeLa) | selectivity ratio at 72 h [1] | IC50 (L02) | IC50 (MCF7)
CC/C=C/C(=O)Nc1cccc(Oc2nc(Nc3cccc(OC)c3)nc3c2CSCC3)c1 | 10.8 µM | 17.2 µM | 27.2 µM | > 2.9 | > 50 µM | 24.2 µM
COc1ccc(Nc2nc3c(c(Oc4cccc(NC(=O)/C=C/C(C)C)c4)n2)CSCC3)cn1 | – | 24.2 µM | 27.8 µM | > 2.06 | > 50 µM | 37.1 µM
C=C(F)C(=O)Nc1cccc(Oc2nc(Nc3ccn(C)n3)nc3c2CSCC3)c1 | 36.3 µM | > 50 µM | > 50 µM | < 0.96 | 47.8 µM | > 50 µM
CC(C)/C=C/C(=O)Nc1cccc(Oc2nc(Nc3ccn(C)n3)nc3c2CSCC3)c1 | – | 33.5 µM | 40.1 µM | > 1.49 | > 50 µM | > 50 µM
CCC/C=C/C(=O)Nc1cccc(Oc2nc(Nc3ccc(OC)cc3)nc3c2CSCC3)c1 | 18.9 µM | 11.9 µM | 12.8 µM | > 4.21 | > 50 µM | > 50 µM
CC(C)=CC(=O)Nc1cccc(Oc2nc(Nc3cccc(C#N)c3)nc3c2CSCC3)c1 | – | 36.9 µM | 29.2 µM | > 1.36 | > 50 µM | > 50 µM
C=CC(=O)Nc1cccc(Oc2nc(Nc3ccc(OC)nc3)nc3c2CSCC3)c1 | 13.9 µM | 14.6 µM | 26.2 µM | > 3.43 | > 50 µM | 17.2 µM
C=CC(=O)Nc1cccc(Oc2nc(Nc3ccn(C)n3)nc3c2CSCC3)c1 | – | 18.6 µM | 25.8 µM | > 2.7 | > 50 µM | > 50 µM
CC/C=C/C(=O)Nc1cccc(Oc2nc(Nc3ccc(OC)nc3)nc3c2CSCC3)c1 | 13.2 µM | 13.1 µM | 31.2 µM | > 3.81 | > 50 µM | 31.5 µM
C=CC(=O)Nc1cccc(Oc2nc(Nc3cccc(OC)c3)nc3c2CSCC3)c1 | 9.64 µM | 10.1 µM | 28.9 µM | – | 48.9 µM | > 50 µM
CC(C)/C=C/C(=O)Nc1cccc(Oc2nc(Nc3cccc(C#N)c3)nc3c2CSCC3)c1 | – | 35.9 µM | 22.8 µM | > 1.39 | > 50 µM | 29.6 µM
C/C=C/C(=O)Nc1cccc(Oc2nc(Nc3ccn(C)n3)nc3c2CSCC3)c1 | 35.9 µM | > 50 µM | > 50 µM | – | > 50 µM | 40 µM
COc1ccc(Nc2nc3c(c(Oc4cccc(NC(=O)C=C(C)C)c4)n2)CSCC3)cn1 | – | 16.8 µM | 29.2 µM | > 2.97 | > 50 µM | 22.2 µM
COc1ccc(Nc2nc3c(c(Oc4cccc(NC(=O)/C=C/C(C)C)c4)n2)CSCC3)cc1 | – | 25.9 µM | 22.9 µM | > 1.93 | > 50 µM | > 50 µM
C=C(C)C(=O)Nc1cccc(Oc2nc(Nc3ccn(C)n3)nc3c2CSCC3)c1 | – | 46.9 µM | > 50 µM | > 1.06 | > 50 µM | > 50 µM
COc1ccc(Nc2nc3c(c(Oc4cccc(NC(=O)C=C(C)C)c4)n2)CSCC3)cc1 | – | 26.9 µM | 19.1 µM | > 1.86 | > 50 µM | > 50 µM
C/C=C/C(=O)Nc1cccc(Oc2nc(Nc3ccc(OC)cc3)nc3c2CSCC3)c1 | – | 22.2 µM | > 50 µM | > 2.25 | > 50 µM | 24.3 µM
CC/C=C/C(=O)Nc1cccc(Oc2nc(Nc3ccn(C)n3)nc3c2CSCC3)c1 | – | 36.8 µM | > 50 µM | > 1.36 | > 50 µM | > 50 µM
CC(C)=CC(=O)Nc1cccc(Oc2nc(Nc3ccn(C)n3)nc3c2CSCC3)c1 | – | 44.2 µM | > 50 µM | > 1.13 | > 50 µM | > 50 µM
